Assay results reported in patent publication EP0693071B1, “NEW CARBOXYLIC-ACID ESTERS OF 2-AMINO-7-(1,3-DIHYDROXY-2-PROPOXYMETHYL)PURINE, THE PREPARATION OF SUCH ESTERS AND THEIR USE” (HOECHST AKTIENGESELLSCHAFT, priority 1993, dated 1994).
Where two headings read alike, the source gives them in different places.

System: Herpes simplex 1 Virus (HSV-1)
Experiment: Activity against systemic HSV-1 infection in NMRI mice, oral treatment
Format: in vivo, NMRI-Mäuse
Details: for ED50: read-out: IC50 (nach Reed und Muench); for mittlere Überlebenszeit (Tage): oral
Description: Wirkung gegen systemische Herpes simplex 1 Virus (HSV-1) Infektion: NMRI-Mäuse, spezifisch pathogenfrei, im Gewicht von 15 bis 18 g wurden intraperitoneal mit HSV-1 infiziert und anschließend mit den erfindungsgemäßen Verbindungen oral therapiert. Die Behandlung erfolgte erstmals 3 Stunden nach der Infektion und wurde zweimal täglich über 4 Tage fortgesetzt. Der Behandlungserfolg wurde anhand des Krankheitsverlaufes und der Überlebensrate gegenüber der unbehandelten Infektionskontrolle bestimmt. Letztere erhielt anstelle der erfindungsgemäßen Verbindungen physiologische Kochsalzlösung appliziert. Die Beobachtungszeit betrug zwei Wochen. Tabelle 1 zeigt die Ergebnisse dieser Untersuchung.

[1] = Human alphaherpesvirus 1, 336 h, NMRI mouse, HSV-1 i.p. infection, oral treatment, 9 doses (first 3 h after infection, then twice daily over 4 days), 2 weeks observation

SMILES | ED50 [1] [µmol/kg] | also measured
CC(C)(C)C(=O)OCC(COC(=O)C(C)(C)C)OCn1cnc2nc(N)ncc21 [Beispiel 1, 2-Amino-7-[(1,3-bis-pivaloyloxy-2-propoxy)methyl]purin] | 19.7 | –
CCCCC(=O)OCC(COC(=O)CCCC)OCn1cnc2nc(N)ncc21 [Beispiel 2, 2-Amino-7-[(1,3-bis-valeroyloxy-2-propoxy)methyl]purin] | 12 | mittlere Überlebenszeit (Tage) (Dosierung 9 x 10 µmol/kg): 9 ± 1,7 Tage
CCCCC(=O)OCC(CO)OCn1cnc2nc(N)ncc21 (stereo not shown) [Beispiel 3, 2-Amino-7-[(1-hydroxy-3-valeroyloxy-2-propoxy)methyl]purin] | < 9.3 | mittlere Überlebenszeit (Tage) (Dosierung 9 x 9,3 µmol/kg): 10 Tage
COCC(=O)OCC(COC(=O)COC)OCn1cnc2nc(N)ncc21 [Beispiel 6, 2-Amino-7-[(1,3-bis-methoxyacetoxy-2-propoxy)methyl]purin] | < 10 | mittlere Überlebenszeit (Tage) (Dosierung 9 x 10 µmol/kg): 9 Tage
CCOCC(=O)OCC(COC(=O)COCC)OCn1cnc2nc(N)ncc21 [Beispiel 7, 2-Amino-7-[(1,3-bis-ethoxyacetoxy-2-propoxy)methyl]purin] | 13.2 | –
Nc1ncc2c(ncn2COC(COC(=O)C2CCCCC2)COC(=O)C2CCCCC2)n1 [Beispiel 9, 2-Amino-7-[(1,3-bis-cyclohexancarbonyloxy-2-propoxy)methyl]purin] | 5.6 | –
Nc1ncc2c(ncn2COC(CO)COC(=O)C2CCCCC2)n1 (stereo not shown) [Beispiel 10, 2-Amino-7-[(1-cyclohexancarbonyloxy-3-hydroxy-2-propoxy)methyl] purin] | 3.6 | –
Nc1ncc2c(ncn2COC(COC(=O)c2ccccc2)COC(=O)c2ccccc2)n1 [Beispiel 11, 2-Amino-7-[(1,3-bis-benzoyloxy-2-propoxy)methyl]purin] | 17.3 | –
Nc1ncc2c(ncn2COC(COC(=O)Cc2ccccc2)COC(=O)Cc2ccccc2)n1 [Beispiel 12, 2-Amino-7-[(1,3-bis-phenylacetoxy-2-propoxy)methyl]purin] | – | ED50 (Human alphaherpesvirus 1, po, 336 h): < 10 µmol/kg
Nc1ncc2c(ncn2COC(COC(=O)c2ccsc2)COC(=O)c2ccsc2)n1 [Beispiel 13] | 5.6 | –
Nc1ncc2c(ncn2COC(CO)COC(=O)c2ccsc2)n1 (stereo not shown) [Beispiel 14] | 11.5 | –
Nc1ncc2c(ncn2COC(COC(=O)Cc2cccnc2)COC(=O)Cc2cccnc2)n1 [Beispiel 15] | 10 | –
Nc1ncc2c(ncn2COC(CO)CO)n1 [Formel 1, R1=R2=H (=Verb. der Formel 1'), 2-Amino-7-[(1,3-dihydroxy-2-propoxy)methyl]purin, reference compound] | 34.5 | –
